Values joined by “and” are separate entries in the source; they are usually repeats but may differ in a detail not shown here. Equal entries are not always repeated.
Legend:
Test in all cases: radiometric filter-binding kinase assay, Kinase HotSpot
Conditions in all cases: compound 0.5 µM; ATP 10 µM
[1] = biological target: PAK2 (human) (UniProt Q13177)
[2] = biological target: EPHB3 (human) (UniProt P54753)
[3] = biological target: STK16 (human) (UniProt O75716)
[4] = biological target: FGFR3 (human) (UniProt P22607)
[5] = biological target: KDR (human) (UniProt P35968)
[6] = biological target: MAPK14 (human) (UniProt Q16539)
Sequence of MAPK14 (human) (Q16539 whole entry, looked up): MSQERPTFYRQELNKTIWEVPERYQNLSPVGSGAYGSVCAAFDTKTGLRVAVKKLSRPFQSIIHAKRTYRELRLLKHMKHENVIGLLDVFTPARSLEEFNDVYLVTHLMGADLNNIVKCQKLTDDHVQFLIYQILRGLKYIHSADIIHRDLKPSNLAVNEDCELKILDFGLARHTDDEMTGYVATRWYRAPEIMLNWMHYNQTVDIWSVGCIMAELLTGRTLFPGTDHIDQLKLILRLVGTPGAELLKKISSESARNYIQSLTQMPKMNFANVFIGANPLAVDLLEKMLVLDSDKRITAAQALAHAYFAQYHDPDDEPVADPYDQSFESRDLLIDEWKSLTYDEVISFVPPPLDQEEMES

[7] = biological target: HCK (human) (UniProt P08631)
Sequence of HCK (human) (P08631 whole entry, looked up): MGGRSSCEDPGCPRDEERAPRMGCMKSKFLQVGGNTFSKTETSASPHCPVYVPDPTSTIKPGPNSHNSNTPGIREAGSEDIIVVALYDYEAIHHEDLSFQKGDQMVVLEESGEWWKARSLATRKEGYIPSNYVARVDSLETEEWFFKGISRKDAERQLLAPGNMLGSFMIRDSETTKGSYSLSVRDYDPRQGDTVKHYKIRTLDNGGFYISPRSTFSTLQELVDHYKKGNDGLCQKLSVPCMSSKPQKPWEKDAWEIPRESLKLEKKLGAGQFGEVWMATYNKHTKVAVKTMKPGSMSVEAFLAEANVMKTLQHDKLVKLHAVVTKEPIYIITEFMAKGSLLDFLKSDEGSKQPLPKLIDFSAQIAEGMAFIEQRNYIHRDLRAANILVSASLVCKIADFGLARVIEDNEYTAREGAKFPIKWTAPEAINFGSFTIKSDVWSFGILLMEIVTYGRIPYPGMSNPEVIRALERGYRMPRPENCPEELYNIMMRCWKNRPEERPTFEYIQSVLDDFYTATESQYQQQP

[8] = biological target: PRKCE (human) (UniProt Q02156)
[9] = biological target: SGK2 (human) (UniProt Q9HBY8)
[10] = biological target: ALK (human) (UniProt Q9UM73)
[11] = biological target: GRK6 (human) (UniProt P43250)
Sequence of GRK6 (human) (P43250 whole entry, looked up): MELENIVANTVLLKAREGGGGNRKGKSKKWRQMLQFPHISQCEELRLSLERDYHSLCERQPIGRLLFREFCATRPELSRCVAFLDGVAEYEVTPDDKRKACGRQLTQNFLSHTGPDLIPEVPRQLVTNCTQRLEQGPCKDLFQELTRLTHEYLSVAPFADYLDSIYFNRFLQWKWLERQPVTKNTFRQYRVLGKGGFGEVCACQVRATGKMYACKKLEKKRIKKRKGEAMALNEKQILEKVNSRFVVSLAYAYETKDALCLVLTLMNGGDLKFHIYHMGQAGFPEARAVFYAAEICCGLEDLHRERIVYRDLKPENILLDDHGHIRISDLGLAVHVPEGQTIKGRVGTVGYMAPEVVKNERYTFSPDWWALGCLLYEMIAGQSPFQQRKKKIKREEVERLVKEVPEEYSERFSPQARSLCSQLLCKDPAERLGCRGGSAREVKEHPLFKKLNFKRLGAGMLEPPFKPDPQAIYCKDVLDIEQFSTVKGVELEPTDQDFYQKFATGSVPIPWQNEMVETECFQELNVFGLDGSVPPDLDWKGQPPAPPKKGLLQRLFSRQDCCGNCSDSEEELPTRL

[12] = biological target: TTK (human) (UniProt P33981)
[13] = biological target: AKT1 (human) (UniProt P31749)
[14] = biological target: PRKG1 (human) (UniProt Q13976)
[15] = biological target: CDK3 CCNE1 (human) (UniProt Q00526+P24864)
[16] = biological target: CDC42BPA (human) (UniProt Q5VT25)
[17] = biological target: CAMKK2 (human) (UniProt Q96RR4)
Sequence of CAMKK2 (human) (Q96RR4 whole entry, looked up): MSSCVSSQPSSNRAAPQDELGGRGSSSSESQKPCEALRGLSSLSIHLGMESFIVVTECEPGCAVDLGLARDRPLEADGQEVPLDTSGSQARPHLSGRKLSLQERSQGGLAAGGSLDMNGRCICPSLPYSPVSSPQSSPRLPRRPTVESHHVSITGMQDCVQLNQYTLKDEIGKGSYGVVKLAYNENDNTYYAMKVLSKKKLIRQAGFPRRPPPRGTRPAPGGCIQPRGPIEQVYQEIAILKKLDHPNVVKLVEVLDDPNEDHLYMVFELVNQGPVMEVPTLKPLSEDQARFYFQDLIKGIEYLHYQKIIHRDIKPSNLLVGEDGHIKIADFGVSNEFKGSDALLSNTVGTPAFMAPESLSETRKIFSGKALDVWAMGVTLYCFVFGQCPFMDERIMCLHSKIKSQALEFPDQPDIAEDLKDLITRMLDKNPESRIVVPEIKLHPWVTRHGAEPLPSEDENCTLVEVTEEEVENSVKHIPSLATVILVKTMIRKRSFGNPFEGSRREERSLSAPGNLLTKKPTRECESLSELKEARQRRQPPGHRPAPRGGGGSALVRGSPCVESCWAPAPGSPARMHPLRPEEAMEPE

[18] = biological target: NEK7 (human) (UniProt Q8TDX7)
Sequence of NEK7 (human) (Q8TDX7 whole entry, looked up): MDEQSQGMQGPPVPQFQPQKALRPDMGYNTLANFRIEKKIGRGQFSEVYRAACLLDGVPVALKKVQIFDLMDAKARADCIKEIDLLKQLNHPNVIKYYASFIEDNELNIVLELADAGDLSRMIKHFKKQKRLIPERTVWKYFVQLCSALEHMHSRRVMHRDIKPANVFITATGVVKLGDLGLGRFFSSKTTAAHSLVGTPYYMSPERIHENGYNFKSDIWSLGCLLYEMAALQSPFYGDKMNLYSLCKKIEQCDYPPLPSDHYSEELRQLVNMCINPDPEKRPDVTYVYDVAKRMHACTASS

[19] = biological target: AURKA (human) (UniProt O14965)
[20] = biological target: CAMK1G (human) (UniProt Q96NX5)
[21] = biological target: DYRK1A (human) (UniProt Q13627)
[22] = biological target: FLT1 (human) (UniProt P17948)
[23] = biological target: NTRK1 (human) (UniProt P04629)
[24] = biological target: NUAK1 (human) (UniProt O60285)
[25] = biological target: JAK1 JH1 catalytic (human) (UniProt P23458)
[26] = biological target: MAP3K11 (human) (UniProt Q16584)
Sequence of MAP3K11 (human) (Q16584 whole entry, looked up): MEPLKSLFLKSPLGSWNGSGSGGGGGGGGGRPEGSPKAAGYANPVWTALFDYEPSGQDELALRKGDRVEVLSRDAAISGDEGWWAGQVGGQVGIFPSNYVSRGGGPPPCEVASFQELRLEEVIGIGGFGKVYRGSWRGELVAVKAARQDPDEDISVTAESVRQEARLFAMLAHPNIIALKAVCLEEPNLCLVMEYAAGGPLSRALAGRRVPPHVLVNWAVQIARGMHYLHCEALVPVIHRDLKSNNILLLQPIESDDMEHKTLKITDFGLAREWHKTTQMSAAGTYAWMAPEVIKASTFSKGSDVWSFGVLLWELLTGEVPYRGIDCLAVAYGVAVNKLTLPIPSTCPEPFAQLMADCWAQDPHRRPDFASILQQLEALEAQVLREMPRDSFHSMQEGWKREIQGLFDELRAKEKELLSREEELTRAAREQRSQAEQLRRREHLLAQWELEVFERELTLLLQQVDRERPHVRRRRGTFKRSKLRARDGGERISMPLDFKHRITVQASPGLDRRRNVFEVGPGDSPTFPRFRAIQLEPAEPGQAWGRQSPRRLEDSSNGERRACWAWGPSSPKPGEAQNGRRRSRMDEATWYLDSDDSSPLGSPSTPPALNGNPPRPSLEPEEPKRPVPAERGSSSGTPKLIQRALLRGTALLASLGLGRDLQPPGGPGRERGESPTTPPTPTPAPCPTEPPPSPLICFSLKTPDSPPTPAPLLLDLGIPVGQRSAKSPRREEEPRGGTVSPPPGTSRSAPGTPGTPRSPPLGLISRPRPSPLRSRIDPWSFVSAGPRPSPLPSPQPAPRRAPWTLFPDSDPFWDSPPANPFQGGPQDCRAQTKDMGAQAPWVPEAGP

[27] = biological target: WNK2 (human) (UniProt Q9Y3S1)
[28] = biological target: BRSK2 (human) (UniProt Q8IWQ3)
[29] = biological target: SRPK3 (human) (UniProt Q9UPE1)
[30] = biological target: DMPK (human) (UniProt Q09013)
[31] = biological target: PASK (human) (UniProt Q96RG2)
[32] = biological target: PHKG2 (human) (UniProt P15735)
[33] = biological target: MAPK12 (human) (UniProt P53778)
[34] = biological target: EPHB1 (human) (UniProt P54762)
[35] = biological target: MARK2 (human) (UniProt Q7KZI7)
Sequence of MARK2 (human) (Q7KZI7 whole entry, looked up): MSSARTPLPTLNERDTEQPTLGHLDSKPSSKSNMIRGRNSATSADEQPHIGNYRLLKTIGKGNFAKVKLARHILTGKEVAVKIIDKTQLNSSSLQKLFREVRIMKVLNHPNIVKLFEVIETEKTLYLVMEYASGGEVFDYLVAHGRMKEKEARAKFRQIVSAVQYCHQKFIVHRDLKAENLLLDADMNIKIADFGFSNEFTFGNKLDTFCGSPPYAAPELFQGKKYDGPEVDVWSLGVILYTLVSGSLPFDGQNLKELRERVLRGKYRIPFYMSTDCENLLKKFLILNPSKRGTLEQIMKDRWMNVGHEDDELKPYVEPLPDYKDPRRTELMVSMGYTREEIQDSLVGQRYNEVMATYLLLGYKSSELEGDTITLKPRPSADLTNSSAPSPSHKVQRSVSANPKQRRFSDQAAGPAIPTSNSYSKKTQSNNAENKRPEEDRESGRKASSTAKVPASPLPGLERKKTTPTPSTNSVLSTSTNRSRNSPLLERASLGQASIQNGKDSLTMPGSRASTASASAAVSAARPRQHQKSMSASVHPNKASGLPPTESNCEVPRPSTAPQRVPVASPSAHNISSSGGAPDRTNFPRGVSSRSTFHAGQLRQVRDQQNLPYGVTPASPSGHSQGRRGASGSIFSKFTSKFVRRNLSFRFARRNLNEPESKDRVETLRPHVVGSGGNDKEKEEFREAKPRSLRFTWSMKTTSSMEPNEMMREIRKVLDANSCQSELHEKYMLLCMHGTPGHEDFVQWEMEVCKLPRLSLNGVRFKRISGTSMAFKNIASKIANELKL

[36] = biological target: SLK (human) (UniProt Q9H2G2)
[37] = biological target: RAF1 (human) (UniProt P04049)
[38] = biological target: FGFR2 (human) (UniProt P21802)
Sequence of FGFR2 (human) (P21802 whole entry, looked up): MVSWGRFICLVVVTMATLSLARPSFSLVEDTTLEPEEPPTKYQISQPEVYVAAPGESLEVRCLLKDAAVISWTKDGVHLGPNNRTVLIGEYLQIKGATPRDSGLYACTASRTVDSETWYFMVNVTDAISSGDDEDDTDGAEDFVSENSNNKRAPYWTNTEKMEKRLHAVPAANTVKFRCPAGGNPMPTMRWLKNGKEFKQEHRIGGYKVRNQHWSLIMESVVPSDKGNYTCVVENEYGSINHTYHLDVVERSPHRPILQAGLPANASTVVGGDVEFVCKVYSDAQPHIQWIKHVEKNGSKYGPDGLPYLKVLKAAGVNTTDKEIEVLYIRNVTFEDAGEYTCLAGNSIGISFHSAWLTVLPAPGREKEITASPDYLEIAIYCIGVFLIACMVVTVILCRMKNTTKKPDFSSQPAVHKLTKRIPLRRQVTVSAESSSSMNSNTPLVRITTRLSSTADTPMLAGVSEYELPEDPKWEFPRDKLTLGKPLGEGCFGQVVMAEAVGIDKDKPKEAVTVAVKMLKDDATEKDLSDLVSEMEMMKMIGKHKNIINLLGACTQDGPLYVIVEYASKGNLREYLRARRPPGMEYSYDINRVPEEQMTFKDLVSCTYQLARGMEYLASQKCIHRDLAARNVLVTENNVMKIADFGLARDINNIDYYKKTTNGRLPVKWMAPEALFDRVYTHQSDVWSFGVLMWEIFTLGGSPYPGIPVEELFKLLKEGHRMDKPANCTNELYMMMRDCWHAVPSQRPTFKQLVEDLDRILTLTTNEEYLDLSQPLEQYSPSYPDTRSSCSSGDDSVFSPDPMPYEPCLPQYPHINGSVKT

[39] = biological target: STK39 (human) (UniProt Q9UEW8)
[40] = biological target: WEE1 (human) (UniProt P30291)
[41] = biological target: CDK5 CDK5R1 p25 (human) (UniProt Q00535+Q15078)

Structure (SMILES)	residual activity [1] [%]	residual activity [2] [%]	residual activity [3] [%]	residual activity [6] [%]	residual activity [7] [%]	residual activity [8] [%]	residual activity [9] [%]	residual activity [10] [%]	residual activity [11] [%]	residual activity [12] [%]	residual activity [13] [%]	residual activity [14]	residual activity [15] [%]	residual activity [16] [%]	residual activity [17] [%]	residual activity [25] [%]	residual activity [28] [%]	residual activity [30] [%]	residual activity [32] [%]	residual activity [34] [%]	also measured
FC(F)(F)c1ccc(/C=C/c2nc(COc3ccc(CCCCn4ccnn4)cc3)co2)cc1	113	94.9	104	103	93.9	101	103	108	104	111	93.2	75.9% and 98.1%	91	103	101	103	99.6	101	93.5	99.4	residual activity [4]: 88.4%; residual activity [5]: 106%; residual activity [18]: 94.6%; residual activity [19]: 111%; residual activity [20]: 95%; residual activity [21]: 105%; residual activity [22]: 95.5%; residual activity [23]: 103%; residual activity [24]: 103%; residual activity [26]: 99.1%; residual activity [27]: 95.9%; residual activity [29]: 104%; residual activity [31]: 104%; residual activity [33]: 98.3%; residual activity [35]: 105%; residual activity [36]: 92.8%; residual activity [37]: 97.1%; residual activity [38]: 96.7%; residual activity [39]: 88.3%; residual activity [40]: 101%
COc1cc2c(cc1OC)-c1[nH]nc(Nc3cccc(F)c3)c1C2	99.6	97.2	96.8	94.3	61.9	87.9	98.6	103	89.4	84.1	93.3	104% and 95.2%	95.4	119	86.8	97.6	92.1	109	121	100	residual activity [4]: 99.6%; residual activity [5]: 98.7%; residual activity [41]: 89%; residual activity [18]: 100%; residual activity [19]: 94.6%; residual activity [20]: 101%; residual activity [21]: 90.3%; residual activity [22]: 82.6%; residual activity [23]: 98.8%; residual activity [24]: 88.5%; residual activity [26]: 93.9%; residual activity [27]: 104%; residual activity [29]: 99.7%; residual activity [31]: 93.3%; residual activity [33]: 101%; residual activity [35]: 77.2%; residual activity [36]: 95.4%; residual activity [38]: 100%; residual activity [39]: 105%; residual activity [40]: 93%
COc1cc2c(Nc3ccc(Br)cc3F)ncnc2cc1OCC1CCN(C)CC1	103	77.4	101	91.8		100	122		104	95.1	94.7	96.6% and 99.8%	92.9	83.7	102	99.1	103	94.6	99.1	27.8	residual activity [41]: 97.8%; residual activity [18]: 99%; residual activity [20]: 101%; residual activity [21]: 106%; residual activity [23]: 104%; residual activity [24]: 92.7%; residual activity [26]: 100%; residual activity [27]: 100%; residual activity [29]: 102%; residual activity [31]: 102%; residual activity [33]: 92.6%; residual activity [35]: 107%; residual activity [36]: 73.9%; residual activity [37]: 81.1%; residual activity [38]: 38.4%; residual activity [39]: 97.4%; residual activity [40]: 95.1%
CN[C@@H]1C[C@H]2O[C@@](C)([C@@H]1OC)n1c3ccccc3c3c4c(c5c6ccccc6n2c5c31)C(=O)NC4					3.26			0.859			7.49		8.24			2.07	3.53	4.83	3.42	12	residual activity [41]: 2.78%

Source: the kinase profiling compilation of Christmann-Franck et al. (2016)
